The text below walks through data of ChEMBL document CHEMBL1136067, “The activity of diguanidino and 'reversed' diamidino 2,5-diarylfurans versus Trypanosoma cruzi and Leishmania donovani” (Bioorg Med Chem Lett, 2003).

A value given as a limit tells only on which side of the number the result lay.

Test [1] concerns Leishmania donovani. In words: Inhibitory activity against Leishmania donovani (macrophage). Format: functional, organism-based.
Test [2] deals with Leishmania donovani. The test is described as follows: Inhibitory activity against Leishmania donovani (amastigote). The test is classed as functional, organism-based.
The test system of a further test is Trypanosoma cruzi. The test is described as follows: Inhibitory activity against Trypanosoma cruzi. Format: functional, organism-based.
Test [3] concerns Nucleic Acid.
The test system of test [4] is Nucleic Acid. The source holds these as a separate data set.
Description: DNA binding affinity measured as an increase in thermal melting of poly(dA.dT)2
Test [5] can be described thus: Cell toxicity was evaluated. Format: functional.

Turning to `N=C(N)Nc1ccc(-c2ccc(-c3ccc(NC(=N)N)cc3Cl)o2)c(Cl)c1`, the IC50 (usually the midpoint of a concentration-inhibition curve) is over 6.8 µM in the test on Leishmania donovani [1], 6.2 µM in the test with Leishmania donovani [2] (read-out: IC50), 27 µM with Trypanosoma cruzi and 14.2 µM in test [5]. Also, the figures for the ΔTm with Nucleic Acid [3] and with Nucleic Acid [4] were 4.7 and 26.1, respectively.

As to `Cc1c(/N=C(\N)c2ccccn2)ccc(-c2ccc(-c3ccc(/N=C(\N)c4ccccn4)c(C)c3C)o2)c1C`, the IC50 with Leishmania donovani [1] amounted to 3.6 µM; in the test on Leishmania donovani [2] (read-out: IC50), 1.14 µM; in the test with Trypanosoma cruzi it was 0.91 µM; in test [5] it was 60.6 µM. In addition, the ΔTm with Nucleic Acid [3] stood at 4.2; in the test with Nucleic Acid [4], 13.8.

With `COc1cc(NC(=N)N)ccc1-c1ccc(-c2ccc(NC(=N)N)cc2OC)o1`, the IC50 in the test on Leishmania donovani [1] is 5.2 µM; in the test with Leishmania donovani [2] (read-out: IC50), 18.7 µM; with Trypanosoma cruzi, 1.3 µM; in test [5], 20 µM. Also, the ΔTm in the test on Nucleic Acid [3] is 2.8; in the test on Nucleic Acid [4] it was 15.2.

Turning to `CCOc1cc(-c2ccc(-c3ccc(N=C(N)N)c(OCC)c3)o2)ccc1N=C(N)N`, the IC50 in the test with Leishmania donovani [1] was over 40 µM; with Leishmania donovani [2] (read-out: IC50) it was 11.2 µM; in the test on Trypanosoma cruzi it was 152 µM; in test [5], 74 µM. Also, the ΔTm in the test on Nucleic Acid [3] came to 6.8; in the test on Nucleic Acid [4] it was 16.5.

With `N=C(N)Nc1ccc(-c2ccc(-c3ccc(NC(=N)N)cc3C(F)(F)F)o2)c(C(F)(F)F)c1`, the IC50 in the test on Leishmania donovani [1] is over 5.6 µM; in the test with Leishmania donovani [2] (read-out: IC50) it was 14.8 µM; in the test with Trypanosoma cruzi, 31.2 µM; in test [5] it was 11.3 µM. In addition, the ΔTm in the test with Nucleic Acid [3] was 0; in the test with Nucleic Acid [4], 5.9.

Regarding `CSc1cc(-c2ccc(-c3ccc(/N=C(\N)c4ccccn4)c(SC)c3)o2)ccc1/N=C(\N)c1ccccn1`, the IC50 came out at 0.15 µM with Leishmania donovani [1], 0.35 µM in the test on Leishmania donovani [2] (read-out: IC50), 0.15 µM in the test on Trypanosoma cruzi and 7.3 µM in test [5]. For the same molecule, the ΔTm with Nucleic Acid [3] was 0; with Nucleic Acid [4], 1.

With `Cc1c(N=C(N)N)ccc(-c2ccc(-c3ccc(N=C(N)N)c(C)c3C)o2)c1C`, the IC50 in the test on Leishmania donovani [1] is over 19 µM; in the test with Leishmania donovani [2] (read-out: IC50), 4.2 µM; in the test on Trypanosoma cruzi, 2.7 µM; in test [5], 33.4 µM. Further, the ΔTm worked out at 1.3 in the test with Nucleic Acid [3] and 3.8 with Nucleic Acid [4].

For the molecule `N=C(Nc1ccc(-c2ccc(-c3ccc(NC(=N)c4ccccn4)cc3Cl)o2)c(Cl)c1)c1ccccn1`, the IC50 was determined as 0.13 µM in the test on Leishmania donovani [1], 0.66 µM in the test with Leishmania donovani [2] (read-out: IC50), 0.49 µM in the test on Trypanosoma cruzi and 8 µM in test [5]. Besides, the ΔTm with Nucleic Acid [3] stood at 0; in the test on Nucleic Acid [4] it was 5.2.

Regarding `COc1cc(-c2ccc(-c3ccc(/N=C(\N)c4ccccn4)c(OC)c3)o2)ccc1/N=C(\N)c1ccccn1`, the IC50 worked out at 0.16 µM in the test with Leishmania donovani [1], 0.29 µM in the test with Leishmania donovani [2] (read-out: IC50), 1 µM with Trypanosoma cruzi and 7.9 µM in test [5]. Besides, the values for the ΔTm in the test with Nucleic Acid [3] and in the test on Nucleic Acid [4] were 6.6 and 15.2, respectively.

`O=C(Cn1ccnc1[N+](=O)[O-])NCc1ccccc1` [BENZNIDAZOLE] yielded an IC50 in the test on Trypanosoma cruzi of 1.27 µM.

With `CSc1cc(-c2ccc(-c3ccc(N=C(N)N)c(SC)c3)o2)ccc1N=C(N)N`, the half-maximal inhibitory concentration (IC50) with Leishmania donovani [1] is over 19 µM; in the test on Leishmania donovani [2] (read-out: IC50), 22.6 µM; in the test with Trypanosoma cruzi it was 114 µM; in test [5], 68 µM. Moreover, the ΔTm in the test on Nucleic Acid [3] amounted to 2.6; in the test on Nucleic Acid [4], 12.2.

In the test with Leishmania donovani [1], `CCCCCCCCCCCCCCCCOP(=O)([O-])OCC[N+](C)(C)C` [MILTEFOSINE] yielded an IC50 of 1 µM.

In the case of `N=C(N)c1ccc(-c2ccc(-c3ccc(C(=N)N)cc3)o2)cc1` [FURAMIDINE], the IC50 was determined as 2.7 µM in the test with Leishmania donovani [2] (read-out: IC50), 23.3 µM in the test with Trypanosoma cruzi and 6.4 µM in test [5]. The ΔTm worked out at 11.7 in the test on Nucleic Acid [3] and 25 with Nucleic Acid [4].

Take `COc1cc(NC(=N)c2ccccn2)ccc1-c1ccc(-c2ccc(NC(=N)c3ccccn3)cc2OC)o1`: the IC50 is 0.48 µM with Leishmania donovani [1], 0.1 µM with Leishmania donovani [2] (read-out: IC50), 0.57 µM in the test with Trypanosoma cruzi and 12.7 µM in test [5]. Moreover, the ΔTm is 7.8 in the test on Nucleic Acid [3] and 19 with Nucleic Acid [4].

In the case of `CC(C)Oc1cc(NC(=N)N)ccc1-c1ccc(-c2ccc(NC(=N)N)cc2OC(C)C)o1`, the half-inhibitory concentration (IC50) in the test on Leishmania donovani [1] was over 6 µM; in the test with Leishmania donovani [2] (read-out: IC50) it was 9.65 µM; with Trypanosoma cruzi, 35 µM; in test [5], 16 µM. The ΔTm with Nucleic Acid [3] was determined as 1.5; with Nucleic Acid [4], 12.

For the molecule `N=C(Nc1ccc(-c2ccc(-c3ccc(NC(=N)c4ccccc4)cc3)o2)cc1)c1ccccc1`, the half-maximal inhibitory concentration (IC50) in the test with Leishmania donovani [1] was over 8 µM; in the test with Leishmania donovani [2] (read-out: IC50), over 100 µM; in the test with Trypanosoma cruzi, 13.7 µM; in test [5], 3.8 µM. For the same molecule, the ΔTm in the test with Nucleic Acid [3] was 15; with Nucleic Acid [4], 28.

With `Cc1cc(NC(=N)c2ccccn2)ccc1-c1ccc(-c2ccc(NC(=N)c3ccccn3)cc2C)o1`, the IC50 was determined as 0.6 µM with Leishmania donovani [1], 0.38 µM in the test on Leishmania donovani [2] (read-out: IC50), 0.21 µM in the test with Trypanosoma cruzi and 11.3 µM in test [5]. Moreover, the ΔTm turned out to be 8.9 with Nucleic Acid [3] and 22.6 in the test with Nucleic Acid [4].

Turning to `N=C(N)Nc1ccc(-c2ccc(-c3ccc(N=C(N)N)c(Cl)c3)o2)cc1Cl`, the IC50 in the test with Leishmania donovani [1] was over 6.3 µM; in the test with Leishmania donovani [2] (read-out: IC50) it was over 50 µM; with Trypanosoma cruzi it was 44 µM; in test [5], 35.7 µM. For the same molecule, the ΔTm in the test on Nucleic Acid [3] was 2.6; in the test on Nucleic Acid [4], 12.7.

With `N=C(Nc1ccc(-c2ccc(-c3ccc(NC(=N)c4ccccn4)cc3)o2)cc1)c1ccccn1`, the IC50 is 1.45 µM with Leishmania donovani [1], 0.55 µM in the test with Leishmania donovani [2] (read-out: IC50), 9.6 µM with Trypanosoma cruzi and 17.1 µM in test [5]. The ΔTm in the test on Nucleic Acid [3] turned out to be 7.5; with Nucleic Acid [4] it was 19.6.

As for `COc1cc(-c2ccc(-c3ccc(N=C(N)N)c(OC)c3)o2)ccc1N=C(N)N`, the IC50 is over 29 µM in the test on Leishmania donovani [1], 14.5 µM in the test with Leishmania donovani [2] (read-out: IC50), 29 µM with Trypanosoma cruzi and 39.6 µM in test [5]. Besides, the values for the ΔTm in the test on Nucleic Acid [3] and in the test on Nucleic Acid [4] were 6.2 and 15.4, respectively.

For `N=C(N)c1ccc(OCCCCCOc2ccc(C(=N)N)cc2)cc1` [PENTAMIDINE], the concentration for half-maximal inhibition (IC50) in the test with Leishmania donovani [1] amounted to 9.3 µM; in the test with Leishmania donovani [2], 2.6 µM; with Trypanosoma cruzi, 7.1 µM; in test [5], 4.2 µM. Besides, the ΔTm in the test with Nucleic Acid [3] amounted to 4.8; in the test on Nucleic Acid [4] it was 12.8.

`N=C(N)Nc1ccc(-c2ccc(-c3ccc(NC(=N)N)cc3)o2)cc1`: the IC50 with Leishmania donovani [1] was over 24 µM; with Leishmania donovani [2] (read-out: IC50), 10.9 µM; with Trypanosoma cruzi it was 86 µM; in test [5], 143 µM. Further, the ΔTm with Nucleic Acid [3] turned out to be 10.8; with Nucleic Acid [4], 21.6.

As to `Cc1cc(NC(=N)N)ccc1-c1ccc(-c2ccc(NC(=N)N)cc2C)o1`, the IC50 with Leishmania donovani [1] was over 6 µM; in the test on Leishmania donovani [2] (read-out: IC50), 3.3 µM; in the test on Trypanosoma cruzi it was 3.2 µM; in test [5], 14.6 µM. Also, the ΔTm in the test with Nucleic Acid [3] was determined as 6.9; with Nucleic Acid [4], 17.8.

Take `N=C(Nc1ccc(-c2ccc(-c3ccc(NC(=N)c4ccccn4)c(Cl)c3)o2)cc1Cl)c1ccccn1`: the IC50 is 0.51 µM with Leishmania donovani [2] (read-out: IC50), 0.5 µM with Trypanosoma cruzi and 128 µM in test [5]. Besides, the ΔTm came to 1.5 in the test with Nucleic Acid [3] and 0.6 in the test on Nucleic Acid [4].
